Values of other authors in PubChem BioAssay AID1259410 (Chemical Carcinogenesis Research Information System (CCRIS), 2018).

Tested on: rodent tumor promotion studies, tumor incidence
Test: CCRIS tumor promotion studies

Compound: ClC1(Cl)C2(Cl)C3(Cl)C4(Cl)C(Cl)(Cl)C5(Cl)C3(Cl)C1(Cl)C5(Cl)C24Cl (stereo not given)
- outcome (Carcinogen: 7,12-DIMETHYLBENZ[A]ANTHRACENE, 57-97-6, Doses [Carcinogen]: 200 NMOL IN 200 µL ACETONE ONCE, Doses [Promoter]: 0, 25, 50, 100, 200 NMOL IN 200 µL ACETONE 3/WK FOR 20 WK (STUDY DURATION: 20 WK), Doses [Promoter]: 0, 25, 50, 100, 200 NMOL IN 200 µL ACETONE 3/WK FOR 20 WK (STUDY DURATION: 20 WK), Route [Carcinogen]: DERMAL, Route [Promoter]: DERMAL, Species: MOUSE, Strain/Sex: CD-1/FEMALE): skin: tumor
- outcome (Carcinogen: 7,12-DIMETHYLBENZ[A]ANTHRACENE, 57-97-6, Doses [Carcinogen]: 200 NMOL IN 200 µL ACETONE ONCE, Doses [Promoter]: 0, 25, 50, 100 NMOL IN 200 µL ACETONE 3/WK FOR 34 WK (STUDY DURATION: 34 WK), Doses [Promoter]: 0, 25, 50, 100 NMOL IN 200 µL ACETONE 3/WK FOR 34 WK (STUDY DURATION: 34 WK), Route [Carcinogen]: DERMAL, Route [Promoter]: DERMAL, Species: MOUSE, Strain/Sex: CD-1/FEMALE): skin: tumor
- outcome (Carcinogen: 7,12-DIMETHYLBENZ[A]ANTHRACENE, 57-97-6, Doses [Carcinogen]: 200 NMOL IN 200 µL ACETONE ONCE, Doses [Promoter]: 0, 200 NMOL IN 200 µL ACETONE 2/WK FOR 20 WK BEGINNING 1 WK POST CARCINOGEN DOSE (STUDY DURATION: 21 WK), Route [Carcinogen]: DERMAL, Route [Promoter]: DERMAL, Species: MOUSE, Strain/Sex: CD-1/FEMALE): skin: tumors
- outcome (Carcinogen: 7,12-DIMETHYLBENZ[A]ANTHRACENE, 57-97-6, Doses [Carcinogen]: 200 NMOL IN 200 µL ACETONE ONCE, Doses [Promoter]: 0, 200 NMOL IN 200 µL ACETONE 3/WK FOR 20 WK BEGINNING 1 WK POST CARCINOGEN DOSE (STUDY DURATION: 21 WK), Route [Carcinogen]: DERMAL, Route [Promoter]: DERMAL, Species: MOUSE, Strain/Sex: CD-1/FEMALE): skin: tumors
- outcome (Carcinogen: 7,12-DIMETHYLBENZ[A]ANTHRACENE, 57-97-6, Doses [Carcinogen]: 200 NMOL IN 200 µL ACETONE ONCE, Doses [Promoter]: 0, 200 NMOL IN 200 µL ACETONE 3/WK FOR 20 WK BEGINNING 1 WK POST CARCINOGEN DOSE (STUDY DURATION: 21 WK), Route [Carcinogen]: DERMAL, Route [Promoter]: DERMAL, Species: MOUSE, Strain/Sex: CD-1/MALE): skin: tumors
- outcome (Carcinogen: 7,12-DIMETHYLBENZ[A]ANTHRACENE, 57-97-6, Doses [Carcinogen]: 200 NMOL IN 200 µL ACETONE ONCE, Doses [Promoter]: 0, 200 NMOL IN 200 µL ACETONE 3/WK FOR 20 WK BEGINNING 4 WK POST CARCINOGEN DOSE ADMINISTERED TO OVARIECTOMIZED MICE (ST, Route [Carcinogen]: DERMAL, Route [Promoter]: DERMAL, Species: MOUSE, Strain/Sex: CD-1/FEMALE): skin: tumors

Compound: OCc1c[nH]c2ccccc12
- outcome (Carcinogen: DIETHYLNITROSAMINE, 55-18-5, N-METHYL-N-NITROSOUREA, 684-93-5, DIHYDROXY-DI-N-PROPYLNITROSAMINE, 53069-64-6, Carcinogen: DIETHYLNITROSAMINE, 55-18-5, N-METHYL-N-NITROSOUREA, 684-93-5, DIHYDROXY-DI-N-PROPYLNITROSAMINE, 53069-64-6, Doses [Carcinogen]: 100 MG/KG BW DEN ONCE THEN 20 MG/KG BW MNU ONCE ON DAYS 5, 8, 11, AND 14 FOLLOWED BY 0.1% DHEN IN DRINKING WATER FOR 2 W, Doses [Promoter]: 0, 0.25% IN DIET FOR 20 WK BEGINNING POST CARCINOGEN TREATMENT (STUDY DURATION: 52 WK), Route [Carcinogen]: INTRAPERITONEAL, INTRAPERITONEAL, ORAL, Route [Carcinogen]: INTRAPERITONEAL, INTRAPERITONEAL, ORAL, Route [Promoter]: ORAL, Species: RAT, Strain/Sex: SPRAGUE-DAWLEY/MALE): thyroid gland: follicular cell adenoma or carcinoma
- outcome (Carcinogen: DIETHYLNITROSAMINE, 55-18-5, N-METHYL-N-NITROSOUREA, 684-93-5, DIHYDROXY-DI-N-PROPYLNITROSAMINE, 53609-64-6, Carcinogen: DIETHYLNITROSAMINE, 55-18-5, N-METHYL-N-NITROSOUREA, 684-93-5, DIHYDROXY-DI-N-PROPYLNITROSAMINE, 53609-64-6, Doses [Carcinogen]: 100 MG/KG BW DEN ONCE, 20 MG/KG BW MNU 2/WK FOR 2 WK, THEN 0.1% DHPN IN DRINKING WATER FOR 2 WK, Doses [Promoter]: O, 0.25% IN DIET FOR 20 WK BEGINNING POST CARCINOGEN TREATMENT (STUDY DURATION: 52 WK), Route [Carcinogen]: INTRAPERITONEAL, INTRAPERITONEAL, ORAL, Route [Carcinogen]: INTRAPERITONEAL, INTRAPERITONEAL, ORAL, Route [Promoter]: ORAL, Species: RAT, Strain/Sex: SPRAGUE-DAWLEY/MALE): thyroid gland: adenoma and adenocarcinoma
- outcome (Doses [Carcinogen]: 0.5 PPM FOR 30 MIN, Doses [Promoter]: 0, 1000 PPM IN DIET BEGINNING 14 WK POST CARCINOGEN DOSE (STUDY DURATION: 12 MO), Route [Carcinogen]: IMMERSION, Route [Promoter]: ORAL, Species: FISH, Strain/Sex: RAINBOW TROUT): liver: tumor
- outcome (Doses [Carcinogen]: 12.5 PPB IN WATER FOR 30 MIN, Doses [Promoter]: 0, 2000 PPM IN DIET BEGINNING 4 WK POST CARCINOGEN DOSE AND CONTINUING FOR DURATION OF STUDY (STUDY DURATION: 36 WK), Route [Carcinogen]: IMMERSION, Route [Promoter]: ORAL, Species: FISH, Strain/Sex: RAINBOW TROUT): liver: tumor
- outcome (Doses [Carcinogen]: 12.5 PPB IN WATER FOR 30 MIN, Doses [Promoter]: 0, 2000 PPM IN DIET BEGINNING 12 WK POST CARCINOGEN DOSE AND CONTINUING FOR 12 WK FOLLOWED BY CONTROL DIET FOR 12 WK (ST, Route [Carcinogen]: IMMERSION, Route [Promoter]: ORAL, Species: FISH, Strain/Sex: RAINBOW TROUT): liver: tumor
- outcome (Doses [Carcinogen]: 12.5 PPB IN WATER FOR 30 MIN, Doses [Promoter]: 0, 2000 PPM IN DIET BEGINNING 12 WK POST CARCINOGEN DOSE AND CONTINUING FOR DURATION OF STUDY (STUDY DURATION: 36 WK), Route [Carcinogen]: IMMERSION, Route [Promoter]: ORAL, Species: FISH, Strain/Sex: RAINBOW TROUT): liver: tumor
- outcome (Doses [Carcinogen]: 12.5 PPB IN WATER FOR 30 MIN, Doses [Promoter]: 0, 2000 PPM IN DIET FOR 24 WK BEGINNING POST CARCINOGEN DOSE (STUDY DURATION: 36 WK), Route [Carcinogen]: IMMERSION, Route [Promoter]: ORAL, Species: FISH, Strain/Sex: RAINBOW TROUT): liver: tumor
- outcome (Doses [Carcinogen]: 12.5 PPB IN WATER FOR 30 MIN, Doses [Promoter]: 0, 2000 PPM IN DIET FOR 36 WK BEGINNING POST CARCINOGEN DOSE (STUDY DURATION: 36 WK), Route [Carcinogen]: IMMERSION, Route [Promoter]: ORAL, Species: FISH, Strain/Sex: RAINBOW TROUT): liver: tumor
- outcome (Doses [Carcinogen]: 50-250 PPM IN WATER FOR 30 MIN, Doses [Promoter]: 0, 500, 750, 1000, 1250 PPM IN DIET BEGINNING 3 MO POST CARCINOGEN TREATMENT (STUDY DURATION: 13 MO), Doses [Promoter]: 0, 500, 750, 1000, 1250 PPM IN DIET BEGINNING 3 MO POST CARCINOGEN TREATMENT (STUDY DURATION: 13 MO), Route [Carcinogen]: IMMERSION, Route [Promoter]: ORAL, Species: FISH, Strain/Sex: RAINBOW TROUT/MALE, FEMALE): liver: tumor
- outcome (Doses [Carcinogen]: 50 PPB IN WATER FOR 30 MIN, Doses [Promoter]: 0, 2000 PPM IN DIET BEGINNING POST CARCINOGEN DOSE AND ADMINISTERED 2 D/WK FOR DURATION OF STUDY (STUDY DURATION: 36 WK), Route [Carcinogen]: IMMERSION, Route [Promoter]: ORAL, Species: FISH, Strain/Sex: RAINBOW TROUT): liver: tumor
- outcome (Doses [Carcinogen]: 50 PPB IN WATER FOR 30 MIN, Doses [Promoter]: 0, 2000 PPM IN DIET BEGINNING POST CARCINOGEN DOSE AND ADMINISTERED FOR 1 WK ALTERNATING WEEKLY WITH CONTROL DIET (STUDY, Route [Carcinogen]: IMMERSION, Route [Promoter]: ORAL, Species: FISH, Strain/Sex: RAINBOW TROUT): liver: tumor

Compound: CC1=C[C@H]2[C@@]3(O)[C@H](C)[C@@H](OC(=O)c4ccccc4)[C@]4(OC(=O)c5ccccc5)[C@H]([C@@H]3C=C(CO)C[C@]2(O)C1=O)C4(C)C
- outcome (Carcinogen: 7,12-DIMETHYLBENZ(A)ANTHRACENE, Doses [Carcinogen]: TOP, Route [Carcinogen]: DERMAL, Route [Promoter]: DERMAL, Species: MOUSE, Strain/Sex: MALE,FEMALE): integumentary system (skin)

Compound: CCOC(=O)C#Cc1ccccc1
- outcome (Carcinogen: 7,12-DIMETHYLBENZ[A]ANTHRACENE, 57-97-6, Doses [Carcinogen]: 10 NMOL (2.5 UG IN 200 µL ACETONE), Doses [Promoter]: 5 MG 2/WK FOR 40 WK BEGINNING 2 WK POST CARCINOGEN TREATMENT (STUDY DURATION: 42 WK), Route [Carcinogen]: DERMAL, Route [Promoter]: DERMAL, Species: MOUSE, Strain/Sex: SENCAR/FEMALE): skin: tumor
- outcome (Carcinogen: 7,12-DIMETHYLBENZ[A]ANTHRACENE, 57-97-6, Doses [Carcinogen]: 100 NMOL, Doses [Promoter]: 3, 5 MG 2/WK FOR 40 WK BEGINNING 2 WK POST CARCINOGEN TREATMENT (STUDY DURATION: 42 WK), Route [Carcinogen]: DERMAL, Route [Promoter]: DERMAL, Species: MOUSE, Strain/Sex: SENCAR/FEMALE): skin: tumor
